This is an account of results in patent US12527774B2, “Estrogen-related receptor alpha modulators” (LEAD PHARMA HOLDING B.V., priority 2019, dated 2026).

Sequence of ERRα ligand binding domain (ERRα-LBD) (P11474 193-421): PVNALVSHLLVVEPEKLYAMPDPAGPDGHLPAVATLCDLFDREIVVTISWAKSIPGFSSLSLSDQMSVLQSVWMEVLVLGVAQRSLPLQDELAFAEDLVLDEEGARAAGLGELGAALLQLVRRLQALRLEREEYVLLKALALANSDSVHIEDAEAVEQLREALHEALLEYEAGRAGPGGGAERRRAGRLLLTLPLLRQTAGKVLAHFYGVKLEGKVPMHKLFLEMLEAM

The target in the first test is ERRα ligand binding domain (ERRα-LBD) (Homo sapiens (Human), UniProt P11474). Nature of the test: ERRα AlphaScreen Assay. The test is classed as biochemical. The note with it: disruption of binding of ERRα-LBD protein to biotin-PGC1α-3 co-activator peptide. The source says:
This assay was based on the knowledge that nuclear receptors interact with cofactors in a ligand dependent matter. The sites of interaction have been mapped to LXXLL motifs that are present in the co-activator sequences. Short peptide sequences that contain the LXXLL motif mimic the behavior of full length co-activators.
The ERRα AlphaScreen Assay described here relies on the interaction of the co-activator peptide with purified bacterial-expressed ERRα ligand binding domain (ERRα-LBD); upon ligand binding the ERRα protein can undergo a conformational change resulting in a loss of co-activator binding.
Compounds of the present invention were tested for their ability to disrupt binding of ERRα-LBD protein to co-activator peptide using AlphaScreen® Technology (Perkin Elmer). ERRα-LBD protein was expressed in E. coli as a 6×His Small Ubiquitin-like Modifier (SUMO) fusion. Bacterial expressed 6His-SUMO-ERRα-LBD protein was purified using affinity chromatography. All experiments were performed at room temperature in 384-well white non-binding plates (Greiner) using 50 mM Tris-HCl pH 7.5, 100 mM NaCl, 0,1% Pluronic F-127, 0.05% BSA and 5 mM TCEP as the buffer. Final DMSO concentration was 1% in the assay. Compounds were assayed in triplicate and: incubated with 0.81 nM ERRα-LBD protein and 10 μg/mL streptavidin donor beads and 10 μg/mL Ni-chelate acceptor beads for 1 hour at room temperature; followed by a 2-hour incubation with 15 nM biotin-PGC1α-3 peptide (QRRPCSELLKYLTTNDDPP) corresponding to amino acids 202 to 220.
The AlphaScreen signal was measured using an Envision Xcite plate reader (Perkin Elmer). Data was normalized, and curve fitting analysis was performed in GraphPad Prism 7 using a four-parameter dose-response fit.
As multiple IC50 values were annotated for the same compound-protein pair, a mean pIC50 for each compound was determined.
Background: Bead proximity is the source of the signal in Alpha formats.
For `COc1cc(C2CC(=O)Nc3n[nH]cc32)ccc1OCc1ccc(C(C)=O)cc1C(F)(F)F` (stereo not drawn) [Example 41, 4-(4-{[4-acetyl-2-(trifluoromethyl)phenyl]methoxy}-3-methoxyphenyl)-2H,4H,5H,6H, 7H-pyrazolo[3,4-b]pyridin-6-one], the “mean pIC50” value was not below 8. Still for that read-out and setting: for `COC(=O)c1ccc(COc2ccc(C3CC(=O)Nc4n[nH]cc43)cc2OC)c(C(F)(F)F)c1` (stereo not drawn) [Example 42, methyl 4-[(2-methoxy-4-{6-oxo-2H,4H,5H,6H,7H-pyrazolo[3,4-b]pyridin-4-yl}phenoxy)methyl]-3-(trifluoromethyl)benzoate] the value was not below 8.

The test is the same for the next values; noted with them: disruption of binding of ERRα-LBD protein to biotin-PGC1α-3 co-activator peptide; read-out: mean pIC50 (converted).
On to `COc1ccccc1COc1ccc(C2CC(=O)Nc3n[nH]cc32)cc1OC` (stereo not drawn) [Example 30, 4-{3-methoxy-4-[(2-methoxyphenyl)methoxy]phenyl}-2H,4H,5H,6H,7H-pyrazolo[3,4-b]pyridin-6-one], for which the IC50 is 100 to 1000 nM. As for `COc1cc(C2CC(=O)Nc3n[nH]cc32)ccc1OCc1cc(Cl)cc(Cl)c1Cl` (stereo not drawn) [Example 31, 4-{3-methoxy-4-[(2,3,5-trichlorophenyl)methoxy]phenyl}-2H,4H,5H,6H,7H-pyrazolo[3,4-b]pyridin-6-one], the IC50 is 100 to 1000 nM. On to `COc1cc(C2CC(=O)Nc3n[nH]cc32)ccc1OCc1ccc([N+](=O)[O-])cc1C(F)(F)F` (stereo not drawn) [Example 34, 4-(3-methoxy-4-{[4-nitro-2-(trifluoromethyl)phenyl]methoxy}phenyl)-2H,4H,5H,6H,7H-pyrazolo[3,4-b]pyridin-6-one], for which the IC50 was 10 to 100 nM.

`COc1ccc(C(F)(F)F)c(COc2ccc(C3CC(=O)Nc4n[nH]cc43)cc2OC)c1` (stereo not drawn) [Example 35, 4-(3-methoxy-4-{[5-methoxy-2-(trifluoromethyl)phenyl]methoxy}phenyl)-2H,4H,5H,6H,7H-pyrazolo[3,4-b]pyridin-6-one]: the IC50 is 10 to 100 nM. `COc1cc(C2CC(=O)Nc3n[nH]cc32)ccc1OCc1ccc(S(C)(=O)=O)cc1C(F)(F)F` (stereo not drawn) [Example 37, 4-(4-{[4-methanesulfonyl-2-(trifluoromethyl)phenyl]methoxy}-3-methoxyphenyl)-2H,4H,5H,6H,7H-pyrazolo[3,4-b]pyridin-6-one]: the IC50 is 100 to 1000 nM. Same read-out and setting: then `COc1cc(C2CC(=O)Nc3n[nH]cc32)ccc1OCc1cccc(OC)c1OC` (stereo not drawn) [Example 39, 4-{4-[(2,3-dimethoxyphenyl)methoxy]-3-methoxyphenyl}-2H,4H,5H,6H,7H-pyrazolo[3,4-b]pyridin-6-one], with 100 to 1000 nM. For the compound `COc1cc(C2CC(=O)Nc3n[nH]cc32)ccc1OCc1cc2c(cc1Br)OCO2` (stereo not drawn) [Example 43, 4-{4-[(6-bromo-2H-1,3-benzodioxol-5-yl)methoxy]-3-methoxyphenyl}-2H,4H,5H,6H, 7H-pyrazolo[3,4-b]pyridin-6-one], the IC50 is 10 to 100 nM. For `C#Cc1ccccc1COc1ccc(C2CC(=O)Nc3n[nH]cc32)cc1OC` (stereo not drawn) [Example 44, 4-{4-[(2-ethynylphenyl)methoxy]-3-methoxyphenyl}-2H,4H,5H,6H,7H-pyrazolo[3,4-b]pyridin-6-one], the IC50 is 10 to 100 nM. Turning to `COc1cc(C2CC(=O)Nc3n[nH]cc32)ccc1OCc1cccc2ccsc12` (stereo not drawn) [Example 45, 4-{4-[(1-benzothiophen-7-yl)methoxy]-3-methoxyphenyl}-2H,4H,5H,6H, 7H-pyrazolo[3,4-b]pyridin-6-one], the IC50 is 10 to 100 nM. Take `COc1cc(C2CC(=O)Nc3n[nH]cc32)ccc1OCc1cccc2c1OC(C)(C)C2` (stereo not drawn) [Example 46, 4-{4-[(2,2-dimethyl-2,3-dihydro-1-benzofuran-7-yl)methoxy]-3-methoxyphenyl}-2H,4H,5H,6H, 7H-pyrazolo[3,4-b]pyridin-6-one]: the IC50 was 100 to 1000 nM. As to `COc1cc(C2CC(=O)Nc3n[nH]cc32)ccc1OCc1cccc2cccnc12` (stereo not drawn) [Example 47, 4-{3-methoxy-4-[(quinolin-8-yl)methoxy]phenyl}-2H,4H,5H,6H, 7H-pyrazolo[3,4-b]pyridin-6-one], the IC50 was 100 to 1000 nM.

Take `CCOC(=O)c1ccccc1COc1ccc(C2CC(=O)Nc3n[nH]cc32)cc1OC` (stereo not drawn) [Example 48, ethyl 2-[(2-methoxy-4-{6-oxo-2H,4H,5H, 6H,7H-pyrazolo[3,4-b]pyridin-4-yl}phenoxy)methyl]benzoate]: the IC50 is 100 to 1000 nM. Consider `COc1cc(C2CC(=O)Nc3n[nH]cc32)ccc1OCc1ccccc1C(F)F` (stereo not drawn) [Example 49, 4-(4-{[2-(difluoromethyl)phenyl]methoxy}-3-methoxyphenyl)-2H,4H,5H,6H, 7H-pyrazolo[3,4-b]pyridin-6-one], for which the IC50 is 100 to 1000 nM. Consider `COc1cc(C2CC(=O)Nc3n[nH]cc32)ccc1OCc1ccncc1C(F)(F)F` (stereo not drawn) [Example 50, 4-(3-methoxy-4-{[3-(trifluoromethyl)pyridin-4-yl]methoxy}phenyl)-2H,4H,5H,6H,7H-pyrazolo[3,4-b]pyridin-6-one], for which the IC50 was 100 to 1000 nM. The same measure, in the same setting: then `COc1cc(C2CC(=O)Nc3n[nH]cc32)ccc1OCc1cccc2c1OCCCO2` (stereo not drawn) [Example 51, 4-{4-[(3,4-dihydro-2H-1,5-benzodioxepin-6-yl)methoxy]-3-methoxyphenyl}-2H,4H,5H, 6H, 7H-pyrazolo[3,4-b]pyridin-6-one], with 100 to 1000 nM. The same measure, in the same setting: for `O=C1CC(c2ccc(OCc3ccccc3Br)cc2)c2c[nH]nc2N1` (stereo not drawn) [Example 58, 4-{4-[(2-bromophenyl)methoxy]phenyl}-2H,4H,5H,6H,7H-pyrazolo[3,4-b]pyridin-6-one] the value was 100 to 1000 nM; for `O=C1CC(c2ccc(OCc3ccccc3C(F)(F)F)cc2)c2c[nH]nc2N1` (stereo not drawn) [Example 59, 4-(4-{[2-(trifluoromethyl)phenyl]methoxy}phenyl)-2H,4H,5H,6H,7H-pyrazolo[3,4-b]pyridin-6-one], 10 to 100 nM.

Turning to `O=C1CC(c2ccc(OCc3ccccc3Cl)cc2)c2c[nH]nc2N1` (stereo not drawn) [Example 60, 4-{4-[(2-chlorophenyl)methoxy]phenyl}-2H,4H,5H,6H,7H-pyrazolo[3,4-b]pyridin-6-one], the IC50 is 100 to 1000 nM.

As to `O=C1CC(c2ccc(OCc3ccccc3C(F)(F)F)cn2)c2c[nH]nc2N1` (stereo not drawn) [Example 63, 4-(5-{[2-(trifluoromethyl)phenyl]methoxy}pyridin-2-yl)-2H,4H,5H,6H, 7H-pyrazolo[3,4-b]pyridin-6-one], the IC50 was 100 to 1000 nM. Still for that read-out and setting: then `COc1cc(OCc2ccccc2C(F)(F)F)ccc1C1CC(=O)Nc2n[nH]cc21` (stereo not drawn) [Example 64, 4-(2-methoxy-4-{[2-(trifluoromethyl)phenyl]methoxy}phenyl)-2H,4H,5H,6H,7H-pyrazolo[3,4-b]pyridin-6-one], with 10 to 100 nM.

For `COC(=O)c1cc(C2CC(=O)Nc3n[nH]cc32)ccc1OCc1ccccc1C(F)(F)F` (stereo not drawn) [Example 65, methyl 5-{6-oxo-2H,4H,5H,6H,7H-pyrazolo[3,4-b]pyridin-4-yl}-2-{[2-(trifluoromethyl)phenyl]methoxy}benzoate], the IC50 was 10 to 100 nM. Same read-out and setting: then `O=C1CC(c2ccc(OCc3ccccc3C(F)(F)F)cc2F)c2c[nH]nc2N1` (stereo not drawn) [Example 66, 4-(2-fluoro-4-{[2-(trifluoromethyl)phenyl]methoxy}phenyl)-2H,4H,5H,6H, 7H-pyrazolo[3,4-b]pyridin-6-one], with 100 to 1000 nM. Consider `O=C1CC(c2ccc(OCc3ccccc3C(F)(F)F)c([N+](=O)[O-])c2)c2c[nH]nc2N1` (stereo not drawn) [Example 67, 4-(3-nitro-4-{[2-(trifluoromethyl)phenyl]methoxy}phenyl)-2H,4H,5H,6H,7H-pyrazolo[3,4-b]pyridin-6-one], for which the IC50 was 100 to 1000 nM. Regarding `O=C1CC(c2ccc(OCc3ccccc3C(F)(F)F)c(OC(F)(F)F)c2)c2c[nH]nc2N1` (stereo not drawn) [Example 69, 4-[3-(trifluoromethoxy)-4-{[2-(trifluoromethyl)phenyl]methoxy}phenyl]-2H,4H,5H, 6H, 7H-pyrazolo[3,4-b]pyridin-6-one], the IC50 was 10 to 100 nM. On to `O=C1CC(c2ccc(OCc3ccccc3C(F)(F)F)c(Br)c2)c2c[nH]nc2N1` (stereo not drawn) [Example 70, 4-(3-bromo-4-{[2-(trifluoromethyl)phenyl]methoxy}phenyl)-2H,4H,5H,6H, 7H-pyrazolo[3,4-b]pyridin-6-one], for which the IC50 was 10 to 100 nM. With `CCc1cc(C2CC(=O)Nc3n[nH]cc32)ccc1OCc1ccccc1C(F)(F)F` (stereo not drawn) [Example 71, 4-(3-ethyl-4-{[2-(trifluoromethyl)phenyl]methoxy}phenyl)-2H,4H,5H,6H,7H-pyrazolo[3,4-b]pyridin-6-one], the IC50 is 10 to 100 nM. Turning to `O=C1CC(c2ccc(OCc3ccccc3C(F)(F)F)c(Cl)c2)c2c[nH]nc2N1` (stereo not drawn) [Example 72, 4-(3-chloro-4-{[2-(trifluoromethyl)phenyl]methoxy}phenyl)-2H,4H,5H,6H, 7H-pyrazolo[3,4-b]pyridin-6-one], the IC50 is 10 to 100 nM. Still for that read-out and setting: for `Cc1cc(C2CC(=O)Nc3n[nH]cc32)ccc1OCc1ccccc1C(F)(F)F` (stereo not drawn) [Example 73, 4-(3-methyl-4-{[2-(trifluoromethyl)phenyl]methoxy}phenyl)-2H,4H,5H,6H,7H-pyrazolo[3,4-b]pyridin-6-one] the value was 10 to 100 nM.
